Measurements: US8338480B2, “Combination treatment of metabolic disorders” (Wellstat Therapeutics Corporation, priority 2006, dated 2012)
Counter-ions that a name gives are not always drawn.

How the values were obtained:
Format in all cases: in vivo
[1] = system: Gold Thioglucose-obese mice; assay: Serum glucose, triglycerides and free fatty acids in gold thioglucose-obese mice (Example 1); settings: GTG-obese mice, after two weeks
Protocol: Systemic administration of gold thioglucose (GTG) damages glucose-sensing neurons in the hypothalamus, and consequently impairs regulation of satiety, leading to chronic hyperphagia and consequent obesity.
Mice received single daily oral treatment with Compound BI, rosiglitazone or combinations of the two drugs. A group of lean control mice on a standard low fat rodent chow was also included.
• 1. Vehicle (1% hydroxypropylmethylcellulose) • 2. Compound BI 30 mg/kg • 3. Compound BI 100 mg/kg • 4. Rosiglitazone (RSG) 3 mg/kg • 5. RSG 3 mg/kg+Compound BI 30 mg/kg • 6. RSG 3 mg/kg+Compound BI 100 mg/kg • 7. Lean Control (no treatment)
After two weeks, blood samples were collected from the retro-orbital sinus for measurement of serum glucose, triglycerides, and free fatty acids.

[2] = system: db/db mice; assay: Serum glucose in db/db mice after two weeks (Example 4)
Protocol: (§1) • 8. Vehicle (1% hydroxypropylmethylcellulose) • 9. Compound BI 100 mg/kg • 10. Rosiglitazone (RSG) 3 mg/kg • 11. Compound BI 100 mg/kg+RSG 3 mg/kg • 12. Compound CF 100 mg/kg • 13. Compound CF 100 mg/kg+RSG 3 mg/kg • 14. Compound CT 100 mg/kg+RSG 3 mg/kg • 15. […]
(§2) After two weeks, blood samples were collected from the retro-orbital sinus and processed for serum chemistry measurements.

[3] = system: Adiponectin; assay: Serum adiponectin in db/db mice after two weeks (Example 4); settings: for Adiponectin ± SD: db/db mice serum
Description: Adiponectin is an glycoprotein secreted from white adipose tissue. Adiponectin improves insulin sensitive in other tissues, e.g. muscle and liver, and is also protective against atherosclerosis. Thiazolidinedione antidiabetic agents such as rosiglitazone or pioglitazone act largely via action at the PPAR-gamma, a nuclear receptor involved in regulation of fuel metabolism. PPAR-gamma agonists enhance adiponectin production by adipose tissue, and this may contribute to their beneficial effects in diabetes and related metabolic disorders.
as §1, §2

[4] = system: db/db mice; assay: Serum glucose in db/db mice treated for two weeks (Example 6); settings: for Glucose / Glucose (% Control): two weeks daily oral; for Glucose (% Control): vehicle = 100
Protocol: A minimum of 7 days was allowed for adaptation after arrival.
Treatment cohorts were given daily oral doses of vehicle, Compound BI (100 mg/kg/day), rosiglitazone (RSG; 3 mg/kg/day) or a combination of the two drugs for 2 weeks. At the end of the treatment period epididymal fat pads were excised, frozen and subsequently processed for measurement of UCP1 by Western Blot analysis. Blood samples were also collected prior to sacrifice via the retro-orbital plexus, and processed and analyzed for serum glucose (AniLytics, Inc.; Gaithersburg Md.).

[5] = system: Uncoupling Protein 1 (UCP1); assay: UCP1 content of white adipose tissue by Western blot in db/db mice (Example 6); settings: for WAT UCP1 (relative light units): db/db mice epididymal fat pads, two weeks daily oral
Description: Uncoupling Protein 1 (UCP1) is a protein that can dissipate metabolic energy when expressed in the mitochondrial membrane. It is present in brown adipose tissue (BAT; the brown color is due to a higher density of mitochondria than in white adipose tissue) in small mammals where its main function is to generate heat, but it can also serve to accelerate combustion of fatty acids. This latter function is especially important when UCP1 is expressed in tissues other than brown fat, since depots of brown fat are limited in humans Expression of UCP1 in white fat alters the functional phenotype of the tissue from fat storage to fat combustion. Transgenic mice expressing UCP1 in white adipose tissue are resistant to obesity and diabetes induced by a high fat diet. Pharmacological induction of UCP1 expression in white adipose tissue is therefore an attractive strategy for promoting weight reduction and resistance to body weight gain. […]
Treatment cohorts were given daily oral doses of vehicle, Compound BI (100 mg/kg/day), rosiglitazone (RSG; 3 mg/kg/day) or a combination of the two drugs for 2 weeks. […] Blood samples were also collected prior to sacrifice via the retro-orbital plexus, and processed and analyzed for serum glucose (AniLytics, Inc.; Gaithersburg Md.). […]
The membrane was washed 3 times in TBST at room temperature, and then incubated with a primary anti UCPI antibody (Chemicon Rabbit anti-mouse UCP-1, catalogue #AB3036) for 1 hr at RT (room temperature) in a sealed bag. […] The membrane was washed 6×7 min in TBST at room temperature, and then incubated with ECL (enhanced chemiluminescence) reagent (Amersham) for 1 min, and the relative amounts of UCP1 in tissue samples were quantified by densitometry of the images on X-ray film resulting from exposure to light from the chemiluminescence reaction, and expressed as relative light units (RLU).

[6] = Compound BI 30 mg/kg oral daily
[7] = Compound BI 100 mg/kg oral daily

## Cc1cccc(C)c1COc1cccc(C(=O)CCC(=O)O)c1 [Compound BI, 4-(3-(2,6-Dimethylbenzyloxy)phenyl)-4-oxobutyric acid]
[1]
  blood glucose, triglycerides and free fatty acids (in words): dose-dependent decreases
[1]; [6]
  Free Fatty Acids ± SEM: 969.2 ± 18.2 UMOL/L
  Glucose ± SEM: 205.8 ± 8.1 mg/dL
  Triglycerides ± SEM: 62.8 ± 3.0 mg/dL
[1]; [7]
  Free Fatty Acids ± SEM: 936.2 ± 63.0 UMOL/L
  Glucose ± SEM: 160.0 ± 17.7 mg/dL
  Triglycerides ± SEM: 53.8 ± 7.4 mg/dL
[2]; compound alone 100 mg/kg
  Glucose ± SD: 206 ± 44 mg/dL
[3]; compound alone 100 mg/kg
  Adiponectin ± SD: 9.3 ± 4.8 micrograms/ml
[3]; db/db mice, 100 mg/kg + RSG 3 mg/kg
  effect on adiponectin with concurrent rosiglitazone (in words): strongly amplify the effect of concurrent rosiglitazone on adiponectin
[3]; db/db mice, agent alone
  serum adiponectin, individual agents (in words): did not elevate serum adiponectin levels
[4]; 2 weeks, Compound BI 100 mg/kg/day, RSG 3 mg/kg/day, alone or combined
  serum glucose (in words): reduced serum glucose relative to vehicle treated control animals
[4]; Cpd. BI 100 mg/kg
  Glucose: 302.0 ± 40.7 mg/dL
  Glucose (% Control): 44 ± 6 % Control
[5]; Cpd. BI 100 mg/kg
  WAT UCP1 (relative light units): 322 ± 94 relative light units
[5]; db/db mice, 2 weeks, Compound BI 100 mg/kg/day, RSG 3 mg/kg/day, alone or combined
  UCP1 content of white adipose tissue (in words): slightly the UCP1 content of elevated white adipose tissue

## CN(CCOc1ccc(CC2SC(=O)NC2=O)cc1)c1ccccn1 (stereo not drawn) [RSG, rosiglitazone maleate, reference compound]
[1]; RSG 3 mg/kg oral daily
  Free Fatty Acids ± SEM: 813.8 ± 34.2 UMOL/L
  Glucose ± SEM: 215.8 ± 14.3 mg/dL
  Triglycerides ± SEM: 61.4 ± 4.3 mg/dL
[2]; RSG 3 mg/kg alone
  Glucose ± SD: 258 ± 74 mg/dL
[3]; RSG 3 mg/kg alone
  Adiponectin ± SD: 12.3 ± 3.0 micrograms/ml
[4]; RSG 3 mg/kg
  Glucose: 403.7 ± 28.0 mg/dL
  Glucose (% Control): 59 ± 4 % Control
[5]; RSG 3 mg/kg
  WAT UCP1 (relative light units): 2067 ± 717 relative light units
